Read-outs that look alike come from different tables or passages of the source.
Test system: Stat3-ER expressing A375 cells
Type: cell-based
Experimental: In order to understand Stat3's ability to affect cell proliferation and cell death, we have examined the profile of genes expressed upon Stat3 activation in A375 cells using oligonucleotide microarrays.
Briefly, microarray analysis was performed using HG U95A GeneChips™ (Affymetrix, Santa Clara, USA) essentially according to the manufacturer's instructions. […] RNA from three independent experiments was pooled and biotin-labeled cRNA probes were generated from each sample starting from 10 μg of total cellular RNA. The resulting biotinylated cRNAs were hybridized to the Affymetrix U95A oligonucleotide array containing more than 12,000 sequences and signals detected. Chip analysis was performed using the Affymetrix Microarray Suite v5 (target intensity 500 used for chip scaling) and GeneSpring 4.2.1 (Silicon Genetics). Changes in gene expression were assessed by looking for concordant changes between replicates using a signed Wilcoxon rank test (as recommended by Affymetrix).

## CCC(=C(c1ccc(O)cc1)c1ccc(OCCN(C)C)cc1)c1ccccc1 [4HT, 4-hydroxytamoxifen, reference compound]
Avge of clones
  expression change (fold): Absent in melanoma 2: 2.1
  expression change (fold): Alpha-1-antichymotrypsin precursor: 2.5
  expression change (fold): Aquaporin 3: 5.2
  expression change (fold): Brain-derived neurotrophic factor: 6.3
  expression change (fold): CCAAT/enhancer binding protein (C/EBP), delta: 4.6
  expression change (fold): Cathepsin L: 3.7
  expression change (fold): Cytokine receptor-like factor 1: 4.8
  expression change (fold): Death-associated protein kinase 1: 5.3
  expression change (fold): Ephrin A1 precursor: 4.0
  expression change (fold): Ets variant gene 6: 4.2
  expression change (fold): Fibronectin: 4.5
  expression change (fold): Fibronectin 1, isoform 1 preproprotein: 5.2
  expression change (fold): Glycine dehydrogenase (decarboxylating, glycine decdarboxylase, glycine cleavage system protein P): 1.7
  expression change (fold): H. sapiens mRNA; cDNA DZFZp586N012: 2.3
  expression change (fold): I factor (complement): 2.9
  expression change (fold): Insulin-like growth factor binding protein 3: 3.9
  expression change (fold): Intercellular adhesion molecule 1 precursor: 2.4
  expression change (fold): Interferon induced transmembrane protein 1 (9-27): 2.8
  expression change (fold): Interleukin 8: 4.9
  expression change (fold): Jun B proto-oncogene: 3.0
  expression change (fold): KIAA0161 gene product: 2.4
  expression change (fold): KIAA0303 protein: 2.9
  expression change (fold): KIAA0500 protein: 4.2
  expression change (fold): Killer cell lectin-like receptor subfamily C, member 2: 6.1
  expression change (fold): Killer cell lectin-like receptor subfamily C, member 3 isoform NKG2-E: 10.3
  expression change (fold): Kynureninase (L-kynurenine hydrolase): 3.6
  expression change (fold): Major vault protein: 2.8
  expression change (fold): Nicotinamide N-methyltransferase: 2.6
  expression change (fold): Niemann-Pick disease, type C1: 2.2
  expression change (fold): Oncostatin M receptor: 3.3
  expression change (fold): Osteoprotegrin: 8.6
  expression change (fold): Prostatic acid phosphatase precursor: 10.5
  expression change (fold): Ras-induced senescence 1: 2.4
  expression change (fold): Regenerating islet-derived 1 alpha (pancreatic stone protein, pancreatic thread protein): 4.0
  expression change (fold): Regulator of G protein signalling 16: 5.3
  expression change (fold): STAT induced STAT inhibitor 3: 9.9
  expression change (fold): Secreted phosphoprotein 1 (osteopontin, bone sialoprotein 1, early T-lymphocyte activation 1): 25.5
  expression change (fold): Serine (or cysteine) protease inhibitor, clade B (ovalbumin), member 3: 100.2
  expression change (fold): Small inducible cytokine A2 (monocyte chemotactic protein 1): 2.4
  expression change (fold): Solute carrier family 2 (facilitated glucose transporter), member 3: 2.6
  expression change (fold): Stanniocalcin 1: 6.7
  expression change (fold): Tyrosine phosphatase/TIGR = HG620-HT620: 2.2
  expression change (fold): v-fos FBJ murine osteosarcoma viral gene homologue: 3.9
  expression change (fold): v-jun avian sarcoma virus 17 oncogene homologue: 4.9
  expression change (fold): v-maf musculoaponeurotic fibrosarcoma oncogene homologue (avian): 1.6
Avge of clones, 2nd listing
  expression change (fold): Aquaporin 3: 4.4
  expression change (fold): Fibronectin 1, isoform 1 preproprotein: 5.0
  expression change (fold): Insulin-like growth factor binding protein 3: 3.1
  expression change (fold): Interleukin 8: 2.6
  expression change (fold): Kynureninase (L-kynurenine hydrolase): 3.3
  expression change (fold): Oncostatin M receptor: 3.3
  expression change (fold): Prostatic acid phosphatase precursor: 2.8
  expression change (fold): Secreted phosphoprotein 1 (osteopontin, bone sialoprotein 1, early T-lymphocyte activation 1): 18.4
  expression change (fold): v-jun avian sarcoma virus 17 oncogene homologue: 4.3
Avge of clones, 3rd listing
  expression change (fold): Kynureninase (L-kynurenine hydrolase): 2.9
Clone1
  expression change (fold): Absent in melanoma 2: 2.2
  expression change (fold): Alpha-1-antichymotrypsin precursor: 2.7
  expression change (fold): Aquaporin 3: 5.2
  expression change (fold): Brain-derived neurotrophic factor: 8.9
  expression change (fold): CCAAT/enhancer binding protein (C/EBP), delta: 5.6
  expression change (fold): Cathepsin L: 3.6
  expression change (fold): Cytokine receptor-like factor 1: 5.2
  expression change (fold): Death-associated protein kinase 1: 5.7
  expression change (fold): Ephrin A1 precursor: 2.8
  expression change (fold): Ets variant gene 6: 3.9
  expression change (fold): Fibronectin: 4.3
  expression change (fold): Fibronectin 1, isoform 1 preproprotein: 7.7
  expression change (fold): Glycine dehydrogenase (decarboxylating, glycine decdarboxylase, glycine cleavage system protein P): 1.8
  expression change (fold): H. sapiens mRNA; cDNA DZFZp586N012: 2.6
  expression change (fold): I factor (complement): 3.8
  expression change (fold): Insulin-like growth factor binding protein 3: 2.5
  expression change (fold): Intercellular adhesion molecule 1 precursor: 2.8
  expression change (fold): Interferon induced transmembrane protein 1 (9-27): 3.1
  expression change (fold): Interleukin 8: 2.3
  expression change (fold): Jun B proto-oncogene: 3.3
  expression change (fold): KIAA0161 gene product: 2.5
  expression change (fold): KIAA0303 protein: 4.2
  expression change (fold): KIAA0500 protein: 1.6
  expression change (fold): Killer cell lectin-like receptor subfamily C, member 2: 9.5
  expression change (fold): Killer cell lectin-like receptor subfamily C, member 3 isoform NKG2-E: 18.4
  expression change (fold): Kynureninase (L-kynurenine hydrolase): 4.0
  expression change (fold): Major vault protein: 3.6
  expression change (fold): Nicotinamide N-methyltransferase: 2.7
  expression change (fold): Niemann-Pick disease, type C1: 2.3
  expression change (fold): Oncostatin M receptor: 4.3
  expression change (fold): Osteoprotegrin: 12.9
  expression change (fold): Prostatic acid phosphatase precursor: 9.3
  expression change (fold): Ras-induced senescence 1: 2.4
  expression change (fold): Regenerating islet-derived 1 alpha (pancreatic stone protein, pancreatic thread protein): 4.7
  expression change (fold): Regulator of G protein signalling 16: 6.9
  expression change (fold): STAT induced STAT inhibitor 3: 9.2
  expression change (fold): Secreted phosphoprotein 1 (osteopontin, bone sialoprotein 1, early T-lymphocyte activation 1): 10.8
  expression change (fold): Serine (or cysteine) protease inhibitor, clade B (ovalbumin), member 3: 103.0
  expression change (fold): Small inducible cytokine A2 (monocyte chemotactic protein 1): 2.8
  expression change (fold): Solute carrier family 2 (facilitated glucose transporter), member 3: 2.9
  expression change (fold): Stanniocalcin 1: 5.2
  expression change (fold): Tyrosine phosphatase/TIGR = HG620-HT620: 2.3
  expression change (fold): v-fos FBJ murine osteosarcoma viral gene homologue: 3.6
  expression change (fold): v-jun avian sarcoma virus 17 oncogene homologue: 3.6
  expression change (fold): v-maf musculoaponeurotic fibrosarcoma oncogene homologue (avian): 1.2
Clone1, 2nd listing
  expression change (fold): Aquaporin 3: 5.7
  expression change (fold): Fibronectin 1, isoform 1 preproprotein: 6.8
  expression change (fold): Insulin-like growth factor binding protein 3: 2.3
  expression change (fold): Interleukin 8: 2.9
  expression change (fold): Kynureninase (L-kynurenine hydrolase): 4.3
  expression change (fold): Oncostatin M receptor: 4.2
  expression change (fold): Prostatic acid phosphatase precursor: 3.3
  expression change (fold): Secreted phosphoprotein 1 (osteopontin, bone sialoprotein 1, early T-lymphocyte activation 1): 16.9
  expression change (fold): v-jun avian sarcoma virus 17 oncogene homologue: 5.6
Clone1, 3rd listing
  expression change (fold): Kynureninase (L-kynurenine hydrolase): 3.9
Clone2
  expression change (fold): Absent in melanoma 2: 2.0
  expression change (fold): Alpha-1-antichymotrypsin precursor: 2.3
  expression change (fold): Aquaporin 3: 5.1
  expression change (fold): Brain-derived neurotrophic factor: 3.6
  expression change (fold): CCAAT/enhancer binding protein (C/EBP), delta: 3.7
  expression change (fold): Cathepsin L: 3.8
  expression change (fold): Cytokine receptor-like factor 1: 4.3
  expression change (fold): Death-associated protein kinase 1: 4.8
  expression change (fold): Ephrin A1 precursor: 5.2
  expression change (fold): Ets variant gene 6: 4.5
  expression change (fold): Fibronectin: 4.6
  expression change (fold): Fibronectin 1, isoform 1 preproprotein: 2.6
  expression change (fold): Glycine dehydrogenase (decarboxylating, glycine decdarboxylase, glycine cleavage system protein P): 1.6
  expression change (fold): H. sapiens mRNA; cDNA DZFZp586N012: 2.0
  expression change (fold): I factor (complement): 2.0
  expression change (fold): Insulin-like growth factor binding protein 3: 5.4
  expression change (fold): Intercellular adhesion molecule 1 precursor: 2.1
  expression change (fold): Interferon induced transmembrane protein 1 (9-27): 2.5
  expression change (fold): Interleukin 8: 7.4
  expression change (fold): Jun B proto-oncogene: 2.6
  expression change (fold): KIAA0161 gene product: 2.4
  expression change (fold): KIAA0303 protein: 1.7
  expression change (fold): KIAA0500 protein: 6.7
  expression change (fold): Killer cell lectin-like receptor subfamily C, member 2: 2.7
  expression change (fold): Killer cell lectin-like receptor subfamily C, member 3 isoform NKG2-E: 2.2
  expression change (fold): Kynureninase (L-kynurenine hydrolase): 3.2
  expression change (fold): Major vault protein: 2.0
  expression change (fold): Nicotinamide N-methyltransferase: 2.5
  expression change (fold): Niemann-Pick disease, type C1: 2.2
  expression change (fold): Oncostatin M receptor: 2.4
  expression change (fold): Osteoprotegrin: 4.4
  expression change (fold): Prostatic acid phosphatase precursor: 11.7
  expression change (fold): Ras-induced senescence 1: 2.5
  expression change (fold): Regenerating islet-derived 1 alpha (pancreatic stone protein, pancreatic thread protein): 3.4
  expression change (fold): Regulator of G protein signalling 16: 3.7
  expression change (fold): STAT induced STAT inhibitor 3: 10.5
  expression change (fold): Secreted phosphoprotein 1 (osteopontin, bone sialoprotein 1, early T-lymphocyte activation 1): 40.1
  expression change (fold): Serine (or cysteine) protease inhibitor, clade B (ovalbumin), member 3: 97.5
  expression change (fold): Small inducible cytokine A2 (monocyte chemotactic protein 1): 2.0
  expression change (fold): Solute carrier family 2 (facilitated glucose transporter), member 3: 2.3
  expression change (fold): Stanniocalcin 1: 8.3
  expression change (fold): Tyrosine phosphatase/TIGR = HG620-HT620: 2.1
  expression change (fold): v-fos FBJ murine osteosarcoma viral gene homologue: 4.1
  expression change (fold): v-jun avian sarcoma virus 17 oncogene homologue: 6.3
  expression change (fold): v-maf musculoaponeurotic fibrosarcoma oncogene homologue (avian): 2.0
Clone2, 2nd listing
  expression change (fold): Aquaporin 3: 3.2
  expression change (fold): Fibronectin 1, isoform 1 preproprotein: 3.3
  expression change (fold): Insulin-like growth factor binding protein 3: 3.9
  expression change (fold): Interleukin 8: 2.2
  expression change (fold): Kynureninase (L-kynurenine hydrolase): 2.4
  expression change (fold): Oncostatin M receptor: 2.5
  expression change (fold): Prostatic acid phosphatase precursor: 2.4
  expression change (fold): Secreted phosphoprotein 1 (osteopontin, bone sialoprotein 1, early T-lymphocyte activation 1): 20.0
  expression change (fold): v-jun avian sarcoma virus 17 oncogene homologue: 3.1
Clone2, 3rd listing
  expression change (fold): Kynureninase (L-kynurenine hydrolase): 2.0
After 24 hrs of treatment
  number of genes significantly decreased: 23 genes
  number of genes significantly increased: 154 genes
  number of genes upregulated more than two-fold: 39 genes
As early as 1 hr after treatment
  SOCS3 expression: rapidly increased

— US20080064027A1, “TEL/Etv6-mediated inhibition of cell proliferation” (priority 2002, published 2008)
